Columns and labels:
leukotriene D4 = conditions: reported; cited from earlier work
IL-6 = test: Spike protein-mediated IL-6 release from human monocyte-derived microglia (iMDM); assay type: cell-based
PAF = conditions: reported; cited from earlier work
MIF = test: Plasma level of MIF; conditions: found by the inventors
TNFα = test: Spike protein-mediated TNFα release from human monocyte-derived microglia (iMDM); assay type: cell-based; conditions: for Dose dependence of TNFα reduction: ibudilast 1, 10 or 100 μM
PDE 4 = conditions: Gibson et al., Eur J Pharmacol 2006; cited from earlier work
[1] = target: T1, macrophage inhibitory factor (MIF) (Homo sapiens, UniProt P14174); conditions: Cho et al., PNAS-USA 2010; cited from earlier work
T1 sequence (P14174 2-115 limits assumed): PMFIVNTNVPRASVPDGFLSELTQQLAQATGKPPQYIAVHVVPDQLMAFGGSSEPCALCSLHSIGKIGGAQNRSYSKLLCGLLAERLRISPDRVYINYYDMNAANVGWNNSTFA

PDE 3A = PDE 3A (Homo sapiens, UniProt Q14432); conditions: Gibson et al., Eur J Pharmacol 2006; cited from earlier work
PDE 3A, sequence (Q14432 whole entry): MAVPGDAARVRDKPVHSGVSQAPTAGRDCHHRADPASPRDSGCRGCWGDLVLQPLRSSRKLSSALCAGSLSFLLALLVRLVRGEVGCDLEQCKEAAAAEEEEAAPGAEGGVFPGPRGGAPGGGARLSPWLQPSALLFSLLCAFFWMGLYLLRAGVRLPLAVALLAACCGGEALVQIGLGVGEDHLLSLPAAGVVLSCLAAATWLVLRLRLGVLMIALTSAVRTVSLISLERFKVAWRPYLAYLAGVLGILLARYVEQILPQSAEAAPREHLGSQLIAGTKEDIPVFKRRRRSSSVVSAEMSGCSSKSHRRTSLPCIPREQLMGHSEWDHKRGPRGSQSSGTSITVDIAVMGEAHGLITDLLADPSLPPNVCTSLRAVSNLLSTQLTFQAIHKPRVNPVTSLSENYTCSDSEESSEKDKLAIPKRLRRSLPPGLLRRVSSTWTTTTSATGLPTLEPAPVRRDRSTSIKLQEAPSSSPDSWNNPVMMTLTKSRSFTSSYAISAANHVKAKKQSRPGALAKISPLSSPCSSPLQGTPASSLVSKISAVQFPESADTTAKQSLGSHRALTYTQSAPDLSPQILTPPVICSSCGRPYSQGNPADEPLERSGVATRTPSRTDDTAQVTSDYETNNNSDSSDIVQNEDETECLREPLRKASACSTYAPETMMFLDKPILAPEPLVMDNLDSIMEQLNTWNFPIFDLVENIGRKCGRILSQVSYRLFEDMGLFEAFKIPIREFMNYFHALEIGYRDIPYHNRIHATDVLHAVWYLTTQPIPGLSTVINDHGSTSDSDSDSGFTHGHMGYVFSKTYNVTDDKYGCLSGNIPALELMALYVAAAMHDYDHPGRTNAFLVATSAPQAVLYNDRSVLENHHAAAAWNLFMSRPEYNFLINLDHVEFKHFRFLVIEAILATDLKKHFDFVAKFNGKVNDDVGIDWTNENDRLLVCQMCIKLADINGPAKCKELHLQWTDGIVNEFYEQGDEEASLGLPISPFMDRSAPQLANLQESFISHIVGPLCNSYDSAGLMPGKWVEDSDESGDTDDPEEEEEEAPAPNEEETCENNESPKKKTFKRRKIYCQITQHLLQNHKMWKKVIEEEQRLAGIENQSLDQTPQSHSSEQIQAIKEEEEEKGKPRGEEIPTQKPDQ

[2] = target: toll-like receptor-4 (TLR4) (Homo sapiens, UniProt O00206); conditions: Yang et al., Cell Death and Disease 2016; cited from earlier work
toll-like receptor-4 (TLR4), sequence (O00206 24-839, species assumed): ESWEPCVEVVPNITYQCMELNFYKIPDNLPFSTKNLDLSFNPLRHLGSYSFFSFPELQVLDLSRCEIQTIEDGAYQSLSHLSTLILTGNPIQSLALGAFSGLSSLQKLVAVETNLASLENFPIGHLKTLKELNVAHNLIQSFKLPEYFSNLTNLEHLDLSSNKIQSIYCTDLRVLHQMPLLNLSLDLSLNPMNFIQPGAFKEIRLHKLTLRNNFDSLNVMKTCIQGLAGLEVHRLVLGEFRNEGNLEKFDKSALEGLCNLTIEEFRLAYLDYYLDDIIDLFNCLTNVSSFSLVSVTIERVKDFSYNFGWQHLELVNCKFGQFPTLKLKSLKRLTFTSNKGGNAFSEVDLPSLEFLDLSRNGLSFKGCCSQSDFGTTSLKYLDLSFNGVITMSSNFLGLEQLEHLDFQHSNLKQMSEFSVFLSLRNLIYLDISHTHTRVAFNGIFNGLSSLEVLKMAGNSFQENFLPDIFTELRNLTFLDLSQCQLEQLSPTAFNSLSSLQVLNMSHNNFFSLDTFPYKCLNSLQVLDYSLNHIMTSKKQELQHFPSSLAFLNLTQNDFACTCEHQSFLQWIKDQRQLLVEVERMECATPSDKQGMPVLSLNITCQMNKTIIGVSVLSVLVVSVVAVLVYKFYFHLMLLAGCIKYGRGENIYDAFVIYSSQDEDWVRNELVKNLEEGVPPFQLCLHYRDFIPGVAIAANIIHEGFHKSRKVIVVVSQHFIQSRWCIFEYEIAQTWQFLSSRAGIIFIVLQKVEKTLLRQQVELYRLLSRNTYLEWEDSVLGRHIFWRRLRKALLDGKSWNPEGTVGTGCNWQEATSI

PDE 10A1 = PDE 10A1 (Homo sapiens, UniProt Q9Y233); conditions: Gibson et al., Eur J Pharmacol 2006; cited from earlier work
PDE 10A1, sequence (Q9Y233 1-779 isoform Q9Y233-1): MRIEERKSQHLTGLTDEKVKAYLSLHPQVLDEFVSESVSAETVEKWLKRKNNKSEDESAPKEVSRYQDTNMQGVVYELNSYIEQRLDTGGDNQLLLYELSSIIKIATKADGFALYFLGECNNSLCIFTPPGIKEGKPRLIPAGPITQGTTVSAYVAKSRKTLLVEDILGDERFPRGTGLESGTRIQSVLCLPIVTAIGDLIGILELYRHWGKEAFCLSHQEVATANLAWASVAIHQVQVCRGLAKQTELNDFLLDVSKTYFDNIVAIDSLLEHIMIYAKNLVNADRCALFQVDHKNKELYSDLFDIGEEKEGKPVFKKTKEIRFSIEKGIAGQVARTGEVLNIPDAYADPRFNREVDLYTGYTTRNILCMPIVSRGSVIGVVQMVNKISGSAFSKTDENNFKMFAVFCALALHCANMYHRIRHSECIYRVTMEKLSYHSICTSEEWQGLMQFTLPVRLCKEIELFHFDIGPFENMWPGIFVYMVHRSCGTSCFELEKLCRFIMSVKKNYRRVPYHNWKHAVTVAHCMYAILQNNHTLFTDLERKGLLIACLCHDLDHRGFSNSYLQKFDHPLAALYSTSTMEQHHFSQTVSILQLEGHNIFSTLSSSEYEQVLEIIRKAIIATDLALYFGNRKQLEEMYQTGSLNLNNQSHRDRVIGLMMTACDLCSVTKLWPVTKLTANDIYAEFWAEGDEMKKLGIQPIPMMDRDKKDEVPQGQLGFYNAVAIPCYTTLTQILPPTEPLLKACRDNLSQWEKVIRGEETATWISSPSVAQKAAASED

PDE 11A1 = PDE 11A1 (Homo sapiens, UniProt Q9HCR9); conditions: Gibson et al., Eur J Pharmacol 2006; cited from earlier work
PDE 11A1, sequence (Q9HCR9 445-933): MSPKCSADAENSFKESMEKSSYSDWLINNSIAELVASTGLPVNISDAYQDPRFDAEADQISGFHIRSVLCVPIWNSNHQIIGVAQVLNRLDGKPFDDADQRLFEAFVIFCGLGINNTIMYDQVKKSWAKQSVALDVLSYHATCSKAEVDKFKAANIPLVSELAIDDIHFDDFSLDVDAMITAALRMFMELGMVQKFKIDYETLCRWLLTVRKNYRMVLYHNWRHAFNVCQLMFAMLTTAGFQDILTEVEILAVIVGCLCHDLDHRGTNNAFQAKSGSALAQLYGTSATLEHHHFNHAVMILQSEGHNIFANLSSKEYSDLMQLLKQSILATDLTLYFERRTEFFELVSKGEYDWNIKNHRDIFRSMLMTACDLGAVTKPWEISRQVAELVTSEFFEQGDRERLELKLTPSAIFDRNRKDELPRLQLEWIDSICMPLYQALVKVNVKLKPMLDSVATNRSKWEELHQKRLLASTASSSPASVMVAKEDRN

[3] = Sanftner et al., Xenobiotica 2009; cited from earlier work

## CC(C)C(=O)c1c(C(C)C)nn2ccccc12 [Ibudilast, 2-methyl-1-(2-(1-methylethyl)pyrazolo (1,5-a)pyridin-3-yl) 1-propanone]
Leukotriene D4
  leukotriene D4 antagonistic activity: antagonistic activities
IL-6; donors 2 and 3, FIGS. 4-5
  (LPS+spike protein)-evoked levels of IL-6: reduced
IL-6; iMDM, "low" concentration (10 ng/mL) of LPS added with the spike proteins (all variants), ibudilast 1.0, 10, 100 μM
  IL-6 levels: reduce
PAF
  PAF antagonistic activity: antagonistic activities
MIF
  plasma level of MIF: lowers plasma level of MIF
TNFα; "Omicron" spike protein (1.0 μg/ml) with cross-linker, all 3 donors
  Dose dependence of TNFα reduction: Dose-dependent curves are observed
TNFα; "Omicron" spike protein (5.0 μg/ml) with cross-linker, donor 3
  Dose dependence of TNFα reduction: Dose-dependent curves are observed
TNFα; "Omicron" spike protein, under certain test conditions, FIGS. 6-8
  TNFα levels elevated by "Omicron" spike protein: reduction by ibudilast was evident under certain test conditions
TNFα; all donors, FIGS. 1-3
  (LPS+spike protein)-evoked levels of TNFα: reduced
TNFα; iMDM, […], ibudilast 1.0, 10, 100 μM
  TNFα levels: reduce
PDE 4
  PDE 4 inhibition: selective inhibitor
[1]
  HPP tautomerase activity of MIF: allosteric inhibitor
PDE 3A
  PDE 3A inhibition: selective inhibitor
[2]
  TLR4 antagonistic activity: antagonistic activity
PDE 10A1
  PDE 10A1 inhibition: selective inhibitor
PDE 11A1
  PDE 11A1 inhibition: selective inhibitor
[3]
  CNS penetration: good CNS penetration
